# Measurements from US6906046B2 (Celltech R & D Inc., priority 2000, dated 2005).
# Key:
# A549 cells = assay: Inhibition of TNF-α induced apoptosis in A549 cells (crystal violet); assay type: cell-based; conditions: Homo sapiens; A549 cells, actinomycin-D + TNF-α at its EC50, 18 hours; percent inhibition at 20 μM or IC50 in μM; read-out: Apopt. Inh.
# Experimental: The protocol used for determining inhibition of apoptosis in A549 cells was adopted from a system previously described (K. Last-Barney et al., J. of Immunology 141:527-530, 1988). Briefly, 10^5 cells in 200 μL 10% FBS/RPMI antibiotic containing culture medium were plated into 96 well round bottom culture plates and allowed to adhere for 6 hours at 37° C. in a 5% CO2 atmosphere. The media was removed and 100 μL of RPMI+1 μg/mL actinomycin-D was added to each well, followed by 90 μL of test compound solution in 1% DMSO. This was incubated for 1 hour 10 AL TNF-α was added at its EC50 (normally 1 ng/mL FAC) and the plates incubated for 18 hours. The media was aspirated from the plates and 100 μL of 0.5% crystal violet in 20% methanol was added. After 10 minutes the plates were rinsed with water to remove excess stain, air dried, and read on a Spectramax at a wavelength of 590 nm. The data obtained from the Spectramax was converted into percent inhibition data at a concentration of 20 μM or IC50 measured in μM.
# NFκB = NFκB luciferase reporter assay in TNF-α stimulated A549 cells (E-selectin promoter); assay type: cell-based; conditions: Homo sapiens; A549 cells with NFκB luciferase reporter, TNF-α at its EC50, 5 hours; % inhibition or IC50 in μM; read-out: NFkB inh.
# Experimental: A549 cells were stably transfected with an E-selectin promoter containing three NFκB binding sites driving luciferase expression. For the assay, 5×10^4 cells were incubated in 96 well round bottom plates overnight in 100 μL of 10% FBS/RPMI medium at 37° C. in a 5% CO2 atmosphere. The following morning the medium was removed and 90 μL of a 1% DMSO solution of test compound solution was added and the plates incubated for 1 hour. 10 μL of TNF-α was added at its EC50 (normally 6 ng/mL FAC) to each well and the plate incubated for 5 hours. 100 μL of luciferase buffer was added, and after 10 minutes luminescence was read on a Wallac Victor 1420 Multilabel Counter. The data obtained from the Wallac Victor was converted into % inhibition data or IC50 measured in μM.
# CXCR1 = target: T1, CXCR1 (Homo sapiens, UniProt P25024); assay: CXCR1 radioligand binding assay with 125I labeled IL-8; conditions: human recombinant CHO cells, percent inhibition or IC50
# T1 construct: host or cells: CHO cells
# T1 sequence (P25024 1-350): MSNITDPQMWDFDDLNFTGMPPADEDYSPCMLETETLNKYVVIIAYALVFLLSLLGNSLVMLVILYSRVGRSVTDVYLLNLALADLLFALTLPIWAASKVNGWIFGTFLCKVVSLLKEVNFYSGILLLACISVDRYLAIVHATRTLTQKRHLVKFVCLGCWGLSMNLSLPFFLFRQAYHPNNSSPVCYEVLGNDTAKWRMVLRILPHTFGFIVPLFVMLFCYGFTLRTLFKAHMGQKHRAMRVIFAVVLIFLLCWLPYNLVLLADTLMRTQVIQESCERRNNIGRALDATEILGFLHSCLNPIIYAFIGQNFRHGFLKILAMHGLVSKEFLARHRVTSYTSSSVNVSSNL
# Description: (§1) This assay is a radioligand binding assay in human recombinant CHO cells with ^125I labeled IL-8 as the ligand. The assay procedure is described in Ahuja, S. K.; Murphy, P. M;.
# CXCR2 = target: T2, CXCR2 (Homo sapiens, UniProt P25025); assay: CXCR2 radioligand binding assay with 125I labeled IL-8; conditions: human recombinant CHO cells, percent inhibition or IC50
# T2 construct: host or cells: CHO cells
# T2 sequence (P25025 1-360): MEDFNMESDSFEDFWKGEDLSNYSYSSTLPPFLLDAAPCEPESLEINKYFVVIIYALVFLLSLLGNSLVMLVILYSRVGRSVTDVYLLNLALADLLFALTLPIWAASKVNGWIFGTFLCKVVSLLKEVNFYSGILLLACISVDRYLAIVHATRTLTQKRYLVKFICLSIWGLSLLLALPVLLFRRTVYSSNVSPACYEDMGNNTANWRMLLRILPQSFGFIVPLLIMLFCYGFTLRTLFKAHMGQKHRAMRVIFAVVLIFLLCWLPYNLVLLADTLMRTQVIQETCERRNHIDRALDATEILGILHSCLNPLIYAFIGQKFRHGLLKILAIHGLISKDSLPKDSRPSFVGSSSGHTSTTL
# Description: as §1
compound,measurement,setting,value
CCCOC(=O)C1C(C(=O)OCC[Si](C)(C)C)C2C/C(=N\Oc3ccccc3)[C@H]1c1cc(O)ccc12 (stereo partly shown) [Example 116],IC50,A549 cells,< 10 µM
same,IC50,NFκB,10 to 50 µM
same,CXCR1 inh.,CXCR1,* (refers to percent inhibition from 10-36%)
same,CXCR2 2 inh.,CXCR2,* (refers to percent inhibition from 10-36%)
